Values belong to the compound of their own block, whether it stands above or below them.
Tests used:
[1] = test system: treated test animals; conditions: cited from earlier work
[2] = adsorption onto glass container in liquid form; assay type: physicochemical
[3] = compared to human amylin; cited from earlier work
[4] = test system: mice; conditions: mouse, in vivo
Experimental: The PCP-induced locomotion test is used with the open field activity chambers and measures locomotion, rearing, and stereotypic activity under amphetamine/PCP-induced conditions. The test has predictive validity for some antipsychotic drugs that normalize the hyperactivity and stereotypic behavior seen with amphetamine and PCP. See, for example, Williams et al. (2006) Prog. Neuropsychopharmacol. Biol. Psychiatry 30:239-243. Mice were injected with the test agent (rat amylin at 0.1, 1.0 or 10 mg/kg, 3 mg/kg clozapine (CZP), or vehicle) 15-30 minutes prior injection with 5 mg/kg PCP. The animals were then placed in the center of an open field and activity was recorded for 60 minutes. […] CZP is an atypical, second generation antipsychotic drug has a mixed receptor profile, including the dopamine receptor.

[5] = test system: mice; assay: marble burying; assay type: in vivo
Experimental: To confirm the interpretation of the findings outlined under Example 1, a variety of animal behavior assays were performed to test for anxiolytic, antidepressant, and antipsychotic effects of amylin administration. […] These specific behavioral tests are known to be sensitive to anxiolytic, antidepressant, or antipsychotic drugs. For these assays, rat amylin was administered to mice at doses ranging from 0.1 to 10 mg/kg, intraperitoneally or via a subcutaneously implanted osmotic pump (ALZET®) containing vehicle or rat amylin, and their performance in the assay was assessed.
Marble burying is used as a model for both anxiety and obsessive-compulsive disorder. See, for example, Chaki et al. (2003) J. Pharmacol. Exp. Ther. 304:818-826. Anxiolytics suppress marble burying activity. Mice were injected with the test agent (rat amylin at 0.1, 1.0 or 10 mg/kg, […] buspirone, or vehicle) 15-30 minutes prior to the test. Mice were then placed individually in clean cages containing 5-cm of hard wood bedding and 20 marbles spaced evenly in rows of five. The number of marbles buried in 30 minutes was recorded. […] Buspirone is a partial 5-HT1A agonist and an known anxiolytic agent.

[6] = weight gain induced by clozapine; assay type: in vivo, rats; conditions: clozapine 0.025 and 0.25 mg/kg/day, s.c. osmotic pumps, 4 weeks; diet 58% kcal from fat; FIG. 7A
Experimental: The effect of amylin administration on weight gain induced by the second generation antipsychotic clozapine was examined. Adult, male Sprague-Dawley® rats (diet=58% kcal from fat) were implanted subcutaneously in the interscapular region with osmotic pumps that continuously delivered vehicle or drug for 4 weeks. In one experiment, rats were treated with vehicle or clozapine (0.025 and 0.25 mg/kg/day).

[7] = test system: mice; assay: prepulse inhibition (PPI) test; assay type: in vivo; conditions: amylin at 10 mg/kg, haloperidol at 1 mg/kg; all prepulse levels (74, 78, and 82 dB); FIG. 5
From the text: The prepulse inhibition (PPI) test measures the reflex response to externally applied auditory stimulation (acoustic startle response) and is related to the deficiency in sensory-motor gating capacity seen in schizophrenia. The acoustic startle reflex is a very basic response to strong exteroceptive stimuli and is widely used to assess sensorimotor reactivity in animals and humans. A weak auditory stimulus (prepulse, 74-82 dB) given prior to the strong acoustic stimulus (120 dB) blunts the startle response. This blunting of the startle response is referred to as prepulse inhibition. See, for example, Conti et al (2005) Behavioral Neuroscience 119: 1052-1060. Antipsychotics increase the ability of the prepulse stimulus to blunt the startle response to the strong stimulus. Some psychotomimetic agents, such as phencyclidine (PCP) and ketamine, can actually reduce the percent prepulse inhibition and stimulate a psychotic-like state in animals, which can be antagonized by antipsychotic agents.
Mice were injected with the test agent (rat amylin at 0.1, 1.0 or 10 mg/kg, or vehicle) […] prior to the test or with haloperidol at 1 mg/kg 30 minutes prior to the test. The mice were placed into an animal holder and the holder placed onto a transducer platform in an acoustic chamber. […] The amount of the animal's “reaction” to the strong stimulus was recorded. […]

[8] = test system: mice; assay: novel object recognition; assay type: in vivo; conditions: rolipram 0.1 mg/kg IP 30 minutes prior to training; test 24 hours later; FIG. 8
Experimental: Since cognitive impairment is associated with psychoses, the effect of amylin administration on novel object recognition was examined. The novel object recognition task was used to measure working memory. See, for example, Miyamoto et al (2005) J. Neuroscience 25:1826-1835. Generally, animals spend less time exploring a previously presented object and more time exploring a novel object when both are presented together. Mice were injected IP with the test agent (rat amylin at 1.0 or 10 mg/kg, 0.1 mg/kg rolipram, or vehicle) 30 minutes prior to the training session. In the training, the mouse was allowed to explore two novel objects placed in the center of an open field. The time spent exploring each object was recorded. The objects differed in color, shape, and texture. Twenty-four hours after the training session, the mouse was placed back in the same open field in which one of the now familiar objects used in the training session was replaced by a novel object. The time spent exploring each object was again recorded. The memory index (or discrimination index) is the time spent exploring the novel object over the total time spent exploring both the novel and familiar objects (times 100). Results of this assay are shown in FIG. 8 where * is P<0.05 vs. vehicle.

Compound: CC[C@H](C)[C@H](NC(=O)[C@@H]1CCCN1C(=O)CNC(=O)[C@H](Cc1ccccc1)NC(=O)[C@H](CC(N)=O)NC(=O)[C@H](CC(N)=O)NC(=O)[C@H](CO)NC(=O)[C@H](CO)NC(=O)[C@H](Cc1c[nH]cn1)NC(=O)[C@@H](NC(=O)[C@H](CC(C)C)NC(=O)[C@H](Cc1ccccc1)NC(=O)[C@H](CC(N)=O)NC(=O)[C@H](C)NC(=O)[C@H](CC(C)C)NC(=O)[C@H](CCCNC(=N)N)NC(=O)[C@H](CCC(N)=O)NC(=O)[C@@H](NC(=O)[C@H](C)NC(=O)[C@@H]1CSSC[C@H](NC(=O)[C@@H](N)CCCCN)C(=O)N[C@@H](CC(N)=O)C(=O)N[C@@H]([C@@H](C)O)C(=O)N[C@@H](C)C(=O)N[C@@H]([C@@H](C)O)C(=O)N1)[C@@H](C)O)C(C)C)C(=O)N[C@@H](CC(C)C)C(=O)N1CCC[C@H]1C(=O)N1CCC[C@H]1C(=O)N[C@H](C(=O)N[C@@H](CC(N)=O)C(=O)N[C@H](C(=O)NCC(=O)N[C@@H](CO)C(=O)N[C@@H](CC(N)=O)C(=O)N[C@H](C(=O)N[C@@H](Cc1ccc(O)cc1)C(N)=O)[C@@H](C)O)C(C)C)[C@@H](C)O [^25,28,29Pro-h-amylin]
amylin activity in vivo [1]: provoking marked hyperlactemia followed by hyperglycemia
tendency to adsorb onto glass [2]: does not have a tendency to adsorb onto the glass
stability characteristics [3]: more desirable

baseline activity, agent alone [4]: did not affect baseline activity
Compound: CC(C)C[C@H](NC(=O)[C@H](CC(N)=O)NC(=O)[C@H](CC(N)=O)NC(=O)[C@H](CO)NC(=O)[C@H](CO)NC(=O)[C@H](CCCNC(=N)N)NC(=O)[C@@H](NC(=O)[C@H](CC(C)C)NC(=O)[C@H](Cc1ccccc1)NC(=O)[C@H](CC(N)=O)NC(=O)[C@H](C)NC(=O)[C@H](CC(C)C)NC(=O)[C@H](CCCNC(=N)N)NC(=O)[C@H](CCC(N)=O)NC(=O)[C@@H](NC(=O)[C@H](C)NC(=O)[C@@H]1CSSC[C@H](NC(=O)[C@@H](N)CCCCN)C(=O)N[C@@H](CC(N)=O)C(=O)N[C@@H]([C@@H](C)O)C(=O)N[C@@H](C)C(=O)N[C@@H]([C@@H](C)O)C(=O)N1)[C@@H](C)O)C(C)C)C(=O)NCC(=O)N1CCC[C@H]1C(=O)N[C@H](C(=O)N[C@@H](CC(C)C)C(=O)N1CCC[C@H]1C(=O)N1CCC[C@H]1C(=O)N[C@H](C(=O)N[C@@H](CC(N)=O)C(=O)N[C@H](C(=O)NCC(=O)N[C@@H](CO)C(=O)N[C@@H](CC(N)=O)C(=O)N[C@H](C(=O)N[C@@H](Cc1ccc(O)cc1)C(N)=O)[C@@H](C)O)C(C)C)[C@@H](C)O)C(C)C [amylin]

Compound: O=C1CC2(CCCC2)CC(=O)N1CCCCN1CCN(c2ncccn2)CC1 [buspirone]
reduction in marble burying, significance ([5]; amylin at 10 mg/kg, buspirone at 20 mg/kg, P<0.05): statistically significant
number of marbles buried in 30 minutes ([5]; rat amylin 0.1, 1.0 or 10 mg/kg, buspirone 20/kg, 15-30 minutes prior, FIG. 3): reduced the number of marbles buried

weight gain compared to vehicle-treated rats [6]: increased weight gain
baseline activity, agent alone [4]: did affect baseline activity
Compound: CN1CCN(C2=Nc3cc(Cl)ccc3Nc3ccccc32)CC1 [clozapine]

Compound: O=C(CCCN1CCC(O)(c2ccc(Cl)cc2)CC1)c1ccc(F)cc1 [haloperidol]
percent of prepulse inhibition [7]: significantly increased the percent of prepulse inhibition

Compound: COc1ccc(C2CNC(=O)C2)cc1OC1CCCC1 (centres unmarked) [rolipram]
relative time exploring the novel object (memory index), in words [8]: increased the relative time exploring the novel object

Compound: ^18Arg^25,28Pro-h-amylin (KCNTATCATQRLANFLVRSSNNFGPILPSTNVGSNTY) [human amylin analog of formula I]
amylin activity in vivo [1]: provoking marked hyperlactemia followed by hyperglycemia

Compound: ^28Pro-h-amylin (KCNTATCATQRLANFLVHSSNNFGAILPSTNVGSNTY) [human amylin analog of formula I]
amylin activity in vivo [1]: provoking marked hyperlactemia followed by hyperglycemia

Compound: des-^1Lys-h-amylin (CNTATCATQRLANFLVHSSNNFGAILSSTNVGSNTY) [human amylin analog of formula I]
amylin activity in vivo [1]: provoking marked hyperlactemia followed by hyperglycemia

Compound: des-^1Lys^18Arg^25,28Pro-h-amylin (CNTATCATQRLANFLVRSSNNFGPILPSTNVGSNTY) [human amylin analog of formula I]
amylin activity in vivo [1]: provoking marked hyperlactemia followed by hyperglycemia

— patent publication US20090181890A1, “Amylin and Amylin Agonists for Treating Psychiatric Diseases and Disorders” (Amylin Pharmaceuticals , Inc., priority 2006, published 2009)
